Data published in patent publication US8735425B2, “Tetrahydroisoquinoline derivative” (Daiichi Sankyo Company, Limited, priority 2008, dated 2014).

Legend:
DGAT1 enzyme = target: T1, DGAT1 enzyme (Homo sapiens, UniProt O75907); experiment: DGAT1 inhibitory activity test; format: biochemical; conditions: test compound concentration of 0.05 μg/ml; read-out: Inhibitory Rate
T1 construct: made in house
T1 sequence (O75907 1-488): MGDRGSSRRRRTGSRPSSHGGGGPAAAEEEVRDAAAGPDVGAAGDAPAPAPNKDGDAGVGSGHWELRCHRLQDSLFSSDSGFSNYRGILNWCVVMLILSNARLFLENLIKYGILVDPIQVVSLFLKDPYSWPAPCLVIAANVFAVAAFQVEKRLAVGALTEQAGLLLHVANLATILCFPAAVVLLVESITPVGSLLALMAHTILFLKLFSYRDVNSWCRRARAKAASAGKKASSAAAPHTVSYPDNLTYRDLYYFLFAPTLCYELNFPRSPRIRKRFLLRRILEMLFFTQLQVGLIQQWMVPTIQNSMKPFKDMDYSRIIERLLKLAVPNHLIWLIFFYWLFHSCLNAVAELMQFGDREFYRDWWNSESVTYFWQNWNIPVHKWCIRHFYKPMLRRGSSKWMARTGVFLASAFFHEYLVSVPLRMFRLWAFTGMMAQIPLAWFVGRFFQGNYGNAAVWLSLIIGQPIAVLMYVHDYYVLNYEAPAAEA
Protocol: DGAT1 enzyme was prepared and stored according to the method described in US2007/0249620.
(2) DGAT1 Inhibitory Activity Test
A reaction solution having the following composition was incubated at room temperature (23° C.) for 30 minutes: 175 mM Tris-HCl (pH 8.0), 8 mM MgCl2, 1 mg/ml BSA, 0.3 mM 1,2-dioleoyl-sn-glycerol (10-fold concentration of EtOH solution, 10% added), 10 μM [^14C]-oleoyl-CoA (approximately 50 mCi/mmol), 0.5% Triton X-100, the DGAT1 enzyme (10 μg) obtained in Test Example 1(1), and a test compound or vehicle (DMSO/MeOH, 7:3 solution, 5% added), […] in total. A reaction stop solution ([…] consisting of isopropanol/1-heptane/water (80:20:2, v/v/v) was added to the reaction solution and stirred. Subsequently, water (30 μl) and 1-heptane (100 μl) were added thereto and stirred. The 1-heptane layer (50 μl) was spotted onto a TLC plate and developed with a developing solvent consisting of 1-hexane/diethyl ether/acetic acid (85:15:1, v/v/v). The radioactivity of the triglyceride fraction was quantified using BAS2000 Bio Image Analyzer (FUJIFILM) and compared with the control. The inhibitory activity of the test compound was calculated according to the formula shown below. In this context, the radioactivity at no reaction (0 minute incubation) was used as background. Inhibitory Rate=100−[(Radioactivity of sample supplemented with test compound)−(Background)]/[(Radioactivity of control)−(Background)]×100

Male C57BL/6N mice = experiment: Triglyceride absorption suppression after fat loading (in vivo DGAT1 inhibitory effect); conditions: Mus musculus, po; dose of 10 mg/kg or lower, orally administered, mice fasted overnight, plasma triglyceride after fat loading; read-out: Triglyceride absorption suppressive activity
Protocol: The DGAT1 enzyme is important for the digestion and absorption of triglycerides, and the inhibition of DGAT1 in the small intestine suppresses the absorption of triglycerides. The in vivo activity of its DGAT1 inhibitory effect was evaluated with the suppressed absorption of triglycerides after fat loading as an index. Male C57BL/6N mice (7-12 weeks old, body weight: 17-25 g, Charles River Laboratories Japan Inc.) fasted overnight were assigned to Vehicle group 1, Vehicle group 2, and each test compound group, to which a vehicle (0.5% methylcellulose) or each test compound (1 to 10 mg/kg) suspended in vehicle was orally administered (5 mL/kg). After a given time, a lipoprotein lipase inhibitor (Pluronic-F127: Sigma-Aldrich Corp., 1 g/kg, 20% by weight dissolved in saline) was intraperitoneally administered (5 mL/kg) to each group. Immediately thereafter, distilled water for the Vehicle group 1 or a 20% fat-containing emulation (Intralipid 20%: TERUMO CORP., Japan) for the Vehicle group 2 and the compound groups were orally administered thereto (0.2 mL/mouse). After a given time of 1 to 4 hours after administration, blood was collected from the tail vein or the right ventricle, and plasma was immediately separated and collected. Then, the triglyceride concentration in plasma was measured using a commercially available kit (Triglyceride E-Test Wako: Wako Pure Chemical Industries, Ltd.). In this method, the administration of the lipoprotein lipase inhibitor suppresses the hydrolysis of triglycerides in the blood such that the triglycerides are accumulated in the blood. These triglycerides are derived from two origins: exogenous triglycerides absorbed in the gastrointestinal tract and endogenous triglycerides released from the liver. The triglyceride absorption suppressive activity of each test compound was calculated based on the equation shown below by removing the influence of the endogenous triglycerides. In this context, each test compound was separately confirmed to have no influence on the concentration of the endogenous triglycerides.
Triglyceride absorption suppressive activity (%)=100−[(Triglyceride concentration of each test compound group)−(Triglyceride concentration of Vehicle group 1)]/[(Triglyceride concentration of Vehicle group 2)−(Triglyceride concentration of Vehicle group 1)]×100

Compound	inhibition at 0.05 µg/mL (DGAT1 enzyme) [%]	inhibition in vivo at up to 10 mg/kg (Male C57BL/6N mice) [%]
O=C(O)CC1CCC(NC(=O)N2CCc3cc(NC(=O)Nc4ccccc4F)ccc3C2)CC1 (centres unmarked) [Example 5, [4-({6-[3-(2-fluoro-phenyl)-ureido]-3,4-dihydro-1H-isoquinoline-2-carbonyl}-amino)-cyclohexyl]-acetic acid]	≥ 50	≥ 60
O=C(O)CCC1CCC(OC(=O)N2CCc3cc(NC(=O)Nc4ccccc4F)ccc3C2)CC1 (centres unmarked) [Example 10, 6-[3-(2-fluoro-phenyl)-ureido]-3,4-dihydro-1H-isoquinoline-2-carboxylic acid 4-(2-carboxy-ethyl)-cyclohexyl ester]	≥ 50	≥ 60
O=C(O)C=C1CCC(OC(=O)N2CCc3cc(NC(=O)Nc4ccccc4F)ccc3C2)CC1 (centres unmarked) [Example 11, 6-[3-(2-fluoro-phenyl)-ureido]-3,4-dihydro-1H-isoquinoline-2-carboxylic acid 4-carboxymethylene-cyclohexyl ester]	≥ 50	≥ 60
O=C(O)CC1=CCC(OC(=O)N2CCc3cc(NC(=O)Nc4ccccc4F)ccc3C2)CC1 (centres unmarked) [Example 12, 6-[3-(2-fluoro-phenyl)-ureido]-3,4-dihydro-1H-isoquinoline-2-carboxylic acid 4-carboxymethyl-cyclohex-3-enyl-ester]	≥ 50	≥ 60
CC(C)(C(=O)O)[C@H]1CC[C@H](OC(=O)N2CCc3cc(NC(=O)Nc4ccccc4F)ccc3C2)CC1 [Example 13, trans-6-[3-(2-fluoro-phenyl)-ureido]-3,4-dihydro-1H-isoquinoline-2-carboxylic acid 4-(carboxy-1-methyl-ethyl)-cyclohexyl ester]	≥ 50	≥ 60
O=C(O)CC1CCC(CC(=O)N2CCc3cc(NC(=O)Nc4ccccc4F)ccc3C2)CC1 (centres unmarked) [Example 17, [4-(2-{6-[3-(2-fluoro-phenyl)-ureido]-3,4-dihydro-1H-isoquinolin-2-yl}-2-oxoethyl)-cyclohexyl]-acetic acid]	≥ 50	≥ 60
COc1ccc(F)cc1NC(=O)Nc1ccc2c(c1)CCN(C(=O)O[C@H]1CC[C@H](CC(=O)O)CC1)C2 [Example 22, trans-6-[3-(5-fluoro-2-methoxy-phenyl)-ureido]-3,4-dihydro-1H-isoquinoline-2-carboxylic acid 4-carboxymethyl-cyclohexyl ester]	≥ 50	≥ 60
COc1ncccc1NC(=O)Nc1ccc2c(c1)CCN(C(=O)O[C@H]1CC[C@H](CC(=O)O)CC1)C2 [Example 24, trans-6-[3-(2-methoxy-pyridin-3-yl)-ureido]-3,4-dihydro-1H-isoquinoline-2-carboxylic acid 4-carboxymethyl-cyclohexyl ester]	≥ 50	≥ 60
CCOc1ccccc1NC(=O)Nc1ccc2c(c1)CCN(C(=O)O[C@H]1CC[C@H](CC(=O)O)CC1)C2 [Example 26, trans-6-[3-(2-ethoxy-phenyl)-ureido]-3,4-dihydro-1H-isoquinoline-2-carboxylic acid 4-carboxymethyl-cyclohexyl ester]	≥ 50	≥ 60
CC(C)c1ccccc1NC(=O)Nc1ccc2c(c1)CCN(C(=O)O[C@H]1CC[C@H](CC(=O)O)CC1)C2 [Example 28, trans-6-[3-(2-isopropyl-phenyl)-ureido]-3,4-dihydro-1H-isoquinoline-2-carboxylic acid 4-carboxymethyl-cyclohexyl ester]	≥ 50	≥ 60
CC(C)c1cccc(NC(=O)Nc2ccc3c(c2)CCN(C(=O)O[C@H]2CC[C@H](CC(=O)O)CC2)C3)c1 [Example 29, trans-6-[3-(3-isopropyl-phenyl)-ureido]-3,4-dihydro-1H-isoquinoline-2-carboxylic acid 4-carboxymethyl-cyclohexyl ester]	≥ 50	≥ 60

Continued, in another order:

inhibition at 0.05 µg/mL (DGAT1 enzyme) [%]	Compound	inhibition in vivo at up to 10 mg/kg (Male C57BL/6N mice) [%]
≥ 50	O=C(O)C[C@H]1CC[C@H](OC(=O)N2CCc3cc(NC(=O)Nc4ccccc4F)ccc3C2)CC1 [Example 2, trans-6-[3-(2-fluoro-phenyl)-ureido]-3,4-dihydro-1H-isoquinoline-2-carboxylic acid 4-carboxymethyl-cyclohexyl ester]	≥ 60
≥ 50	O=C(Nc1ccc2c(c1)CCN(C(=O)O[C@H]1CC[C@H](C(=O)O)CC1)C2)Nc1ccccc1F [Example 8, trans-6-[3-(2-fluoro-phenyl)-ureido]-3,4-dihydro-1H-isoquinoline-2-carboxylic acid 4-carboxy-cyclohexyl ester]	≥ 60
≥ 50	CCOc1cccc(NC(=O)Nc2ccc3c(c2)CCN(C(=O)O[C@H]2CC[C@H](CC(=O)O)CC2)C3)c1 [Example 20, trans-6-[3-(3-ethoxy-phenyl)-ureido]-3,4-dihydro-1H-isoquinoline-2-carboxylic acid 4-carboxymethyl-cyclohexyl ester]	≥ 60
≥ 50	COc1ccccc1NC(=O)Nc1ccc2c(c1)CCN(C(=O)O[C@H]1CC[C@H](CC(=O)O)CC1)C2 [Example 21, trans-6-[3-(2-methoxy-phenyl)-ureido]-3,4-dihydro-1H-isoquinoline-2-carboxylic acid 4-carboxymethyl-cyclohexyl ester]	≥ 60
≥ 50	COc1ccc(C)cc1NC(=O)Nc1ccc2c(c1)CCN(C(=O)O[C@H]1CC[C@H](CC(=O)O)CC1)C2 [Example 23, trans-6-[3-(2-methoxy-5-methyl-phenyl)-ureido]-3,4-dihydro-1H-isoquinoline-2-carboxylic acid 4-carboxymethyl-cyclohexyl ester]	≥ 60
≥ 50	O=C(O)C[C@H]1CC[C@H](OC(=O)N2CCc3cc(Nc4nc5ccccc5o4)ccc3C2)CC1 [Example 25, trans-6-(benzoxazol-2-ylamino)-3,4-dihydro-1H-isoquinoline-2-carboxylic acid 4-carboxymethyl-cyclohexyl ester]	≥ 60
≥ 50	CCOc1ccc(F)cc1NC(=O)Nc1ccc2c(c1)CCN(C(=O)O[C@H]1CC[C@H](CC(=O)O)CC1)C2 [Example 27, trans-6-[3-(2-ethoxy-5-fluoro-phenyl)-ureido]-3,4-dihydro-1H-isoquinoline-2-carboxylic acid 4-carboxymethyl-cyclohexyl ester]	≥ 60
≥ 50	CC(C)Oc1cccc(NC(=O)Nc2ccc3c(c2)CCN(C(=O)O[C@H]2CC[C@H](CC(=O)O)CC2)C3)c1 [Example 30, trans-6-[3-(3-isopropoxy-phenyl)-ureido]-3,4-dihydro-1H-isoquinoline-2-carboxylic acid 4-carboxymethyl-cyclohexyl ester]	≥ 60
